pIC50: −log10 of the molar value.
Tests used:
[1] = tested on: DU-145; assay: Antiproliferative activity against AR-negative human DU145 cells assessed as reduction in cell viability incubated for 3 days by MTT assay; details: DU-145, 72 h
[2] = tested on: LNCaP; assay: Antiproliferative activity against AR-positive human LNCaP cells assessed as reduction in cell viability incubated for 3 days by MTT assay; details: 72 h
[3] = tested on: CWR22R; assay: Antiproliferative activity against AR-positive human 22RV1 cells assessed as reduction in cell viability incubated for 3 days by MTT assay; details: 22Rv1, 72 h

| Structure (SMILES) | pIC50 [1] | pIC50 [2] | pIC50 [3] |
| --- | --- | --- | --- |
| C=CC(=O)Nc1ccc(-c2cc(=O)c3c(O)cc(OC)c(OC(C)C)c3o2)cc1 | 4.83 | 4.82 | 5.24 |
| CNC(=O)c1ccc(N2C(=S)N(c3ccc(C#N)c(C(F)(F)F)c3)C(=O)C2(C)C)cc1F [ENZALUTAMIDE] | 4.34 | 4.75 | 4.37 |

Reference: ChEMBL document CHEMBL4814014, “Identification of novel androgen receptor degrading agents to treat advanced prostate cancer” (Eur J Med Chem, 2021)
